Measurements taken from patent US20240025919A1, “AZA-TETRACYCLIC OXAZEPINE COMPOUNDS AND USES THEREOF” (Genentech, Inc., priority 2022, published 2024).

Columns and labels:
[1] = target: KRAS G12D (Homo sapiens (Human), UniProt P01116, G12D); test: KRAS G12D LoEnz Biochemical Assay, BODIPY-GDP Exchange TR-FRET (SOS1-mediated nucleotide exchange); details: read-out: KRas (G12D) GDP HTRF IC50
[2] = target: KRAS WT (Homo sapiens (Human), UniProt P01116); test: KRAS WT Biochemical Assay, BODIPY-GDP Exchange TR-FRET (Example 502; 0.06 nM KRAS WT, 15 nM GDP, 300 nM SOS1, 120-minute incubation); details: read-out: KRas HTRF IC50
Method in brief: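 Biotin-tagged recombinant KRAS WT (0.06 nM) preloaded with 15 nM GDP and Tb-streptavidin, 10 min RT, then exchange started with 300 nM SOS1 plus 300 nM BODIPY-GDP in HEPES pH 7.5 buffer with MgCl2. TR-FRET 520/490 ratio read after 120 min; normalized to DMSO and full-inhibition control; IC50 from 4-parameter fit.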

Chain of KRAS WT (P01116-2 other isoform, or with tags, fused parts or gaps): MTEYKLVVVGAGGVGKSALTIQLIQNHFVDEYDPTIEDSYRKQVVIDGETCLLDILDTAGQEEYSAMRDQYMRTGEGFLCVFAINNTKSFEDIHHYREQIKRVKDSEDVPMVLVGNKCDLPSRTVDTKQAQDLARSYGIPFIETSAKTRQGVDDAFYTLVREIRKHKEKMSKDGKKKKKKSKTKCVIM
Chain of KRAS G12D (P01116-2 other isoform, or with tags, fused parts or gaps G12D): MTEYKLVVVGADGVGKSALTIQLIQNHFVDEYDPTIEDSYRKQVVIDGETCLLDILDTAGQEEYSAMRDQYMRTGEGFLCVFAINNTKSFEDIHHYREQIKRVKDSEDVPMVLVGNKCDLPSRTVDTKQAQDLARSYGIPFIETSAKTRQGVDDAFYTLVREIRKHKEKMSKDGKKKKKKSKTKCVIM

SMILES	IC50 [1]	IC50 [2]
C[C@@H]1Oc2nc(-c3nc(N)c(F)cc3C(F)(F)F)c(F)c3nc(OC[C@@]45CCCN4CC4(CC4(F)F)C5)nc(c23)N2C[C@H]3CC[C@H](N3)[C@@H]12 (stereo partly drawn) [Compound 86, 6-((5S,5aS,6S,9R)-12-(((7a′S)-2,2-difluorodihydro-1′H,3′H-spiro-[cyclopropane-1,2′-pyrrolizin]-7a′(5′H)-yl)methoxy)-1-fluoro-5-methyl-5a,6,7,8,9,10-hexahydro-5H-4-oxa-3,10a,11,13,14-pentaaza[6,9]methanonaphtho[1,8-ab]heptalen-2-yl)-3-fluoro-5-(trifluoromethyl)pyridin-2-amine]	4.67 nM	248 nM
COc1cc2ccccc2c(-c2nc3c4c(nc(OC[C@]56CCN5CC(F)(F)C6)nc4c2F)N2C[C@H]4CC[C@H](N4)[C@H]2[C@H](C)O3)n1 [Compound 89, (5S,5aS,6S,9R)-12-(((R)-3,3-Difluoro-1-azabicyclo[3.2.0]heptan-5-yl)methoxy)-1-fluoro-2-(3-methoxyisoquinolin-1-yl)-5-methyl-5a,6,7,8,9,10-hexahydro-5H-4-oxa-3,10a,11,13,14-pentaaza-6,9-methanonaphtho[1,8-ab]heptalene]	912 nM	1650 nM
C[C@@H]1Oc2nc(-c3c(C(F)(F)F)cc(F)c(N)c3F)c(F)c3nc(OC[C@@]45CCCN4C[C@H](F)C5)nc(c23)N2C[C@H]3CC[C@H](N3)[C@@H]12 [Compound 90, 2,6-Difluoro-3-((5S,5aS,6S,9R)-1-fluoro-12-(((2R,7aS)-2-fluorotetrahydro-1H-pyrrolizin-7a(5H)-yl)methoxy)-5-methyl-5a,6,7,8,9,10-hexahydro-5H-4-oxa-3,10a,11,13,14-pentaaza-6,9-methanonaphtho[1,8-ab]heptalen-2-yl)-4-(trifluoromethyl)aniline]	0.47 nM	71.6 nM
Cc1c(F)c(N)c(F)c(-c2nc3c4c(nc(OC[C@@]56CCCN5C[C@H](F)C6)nc4c2F)N2C[C@H]4CC[C@H](N4)[C@H]2[C@H](C)O3)c1C(F)(F)F [Compound 91, 2,6-Difluoro-3-((5S,5aS,6S,9R)-1-fluoro-12-(((2R,7aS)-2-fluorotetrahydro-1H-pyrrolizin-7a(5H)-yl)methoxy)-5-methyl-5a,6,7,8,9,10-hexahydro-5H-4-oxa-3,10a,11,13,14-pentaaza-6,9-methanonaphtho[1,8-ab]heptalen-2-yl)-5-methyl-4-(trifluoromethyl)aniline]	0.182 nM	5.71 nM
Cc1c(F)c(N)c(F)c(-c2nc3c4c(nc(OC[C@@H]5CC[C@H]6COCCN65)nc4c2F)N2C[C@H]4CC[C@H](N4)[C@H]2[C@H](C)O3)c1C(F)(F)F [Compound 96, 2,6-Difluoro-3-((5S,5aS,6S,9R)-1-fluoro-12-(((6S,8aS)-hexahydro-1H-pyrrolo[2,1-c][1,4]oxazin-6-yl)methoxy)-5-methyl-5a,6,7,8,9,10-hexahydro-5H-4-oxa-3,10a,11,13,14-pentaaza-6,9-methanonaphtho[1,8-ab]heptalen-2-yl)-5-methyl-4-(trifluoromethyl)aniline]	0.433 nM	75.8 nM
Cc1cc(N)c(F)c(-c2nc3c4c(nc(OC[C@@H]5CC[C@H]6COCCN65)nc4c2F)N2C[C@H]4CC[C@H](N4)[C@H]2[C@H](C)O3)c1C(F)(F)F [Compound 97, 2-Fluoro-3-((5S,5aS,6S,9R)-1-fluoro-12-(((6S,8aS)-hexahydro-1H-pyrrolo[2,1-c][1,4]oxazin-6-yl)methoxy)-5-methyl-5a,6,7,8,9,10-hexahydro-5H-4-oxa-3,10a,11,13,14-pentaaza-6,9-methanonaphtho[1,8-ab]heptalen-2-yl)-5-methyl-4-(trifluoromethyl)aniline]	0.37 nM	43.7 nM
Cc1cc(N)c(F)c(-c2nc3c4c(nc(OC[C@@H]5CC[C@H]6COCCN65)nc4c2F)N2C[C@H]4CC[C@H](N4)[C@H]2[C@H](C)O3)c1C1CC1 [Compound 98, 4-Cyclopropyl-2-fluoro-3-((5S,5aS,6S,9R)-1-fluoro-12-(((6S,8aS)-hexahydro-1H-pyrrolo[2,1-c][1,4]oxazin-6-yl)methoxy)-5-methyl-5a,6,7,8,9,10-hexahydro-5H-4-oxa-3,10a,11,13,14-pentaaza-6,9-methanonaphtho[1,8-ab]heptalen-2-yl)-5-methylaniline]	4.25 nM	553 nM
Cc1cc(N)c(F)c(-c2nc3c4c(nc(OC[C@@H]5CC[C@H]6COCCN65)nc4c2F)N2C[C@H]4CC[C@H](N4)[C@H]2[C@H](C)O3)c1C=C(F)F [Compound 99, 4-(2,2-Difluorovinyl)-2-fluoro-3-((5S,5aS,6S,9R)-1-fluoro-12-(((6S,8aS)-hexahydro-1H-pyrrolo[2,1-c][1,4]oxazin-6-yl)methoxy)-5-methyl-5a,6,7,8,9,10-hexahydro-5H-4-oxa-3,10a,11,13,14-pentaaza-6,9-methanonaphtho[1,8-ab]heptalen-2-yl)-5-methylaniline]	2.09 nM	506 nM
Cc1cc(N)c(F)c(-c2nc3c4c(nc(OC[C@@H]5CC[C@H]6COCCN65)nc4c2F)N2C[C@H]4CC[C@H](N4)[C@H]2[C@H](C)O3)c1C(F)(F)C(F)(F)F [Compound 100, 2-Fluoro-3-((5S,5aS,6S,9R)-1-fluoro-12-(((6S,8aS)-hexahydro-1H-pyrrolo[2,1-c][1,4]oxazin-6-yl)methoxy)-5-methyl-5a,6,7,8,9,10-hexahydro-5H-4-oxa-3,10a,11,13,14-pentaaza-6,9-methanonaphtho[1,8-ab]heptalen-2-yl)-5-methyl-4-(perfluoroethyl)aniline]	1.49 nM	495 nM
Cc1cc(N)c(F)c(-c2nc3c4c(nc(OC[C@@H]5CC[C@H]6COCCN65)nc4c2F)N2C[C@H]4CC[C@H](N4)[C@H]2[C@H](C)O3)c1Cl [Compound 101, 4-Chloro-2-fluoro-3-((5S,5aS,6S,9R)-1-fluoro-12-(((6S,8aS)-hexahydro-1H-pyrrolo[2,1-c][1,4]oxazin-6-yl)methoxy)-5-methyl-5a,6,7,8,9,10-hexahydro-5H-4-oxa-3,10a,11,13,14-pentaaza-6,9-methanonaphtho[1,8-ab]heptalen-2-yl)-5-methylaniline]	3.19 nM	906 nM
Cc1cc(N)c(Cl)c(-c2nc3c4c(nc(OC[C@@H]5CC[C@H]6COCCN65)nc4c2F)N2C[C@H]4CC[C@H](N4)[C@H]2[C@H](C)O3)c1C(F)(F)F [Compound 103, 2-Chloro-3-((5S,5aS,6S,9R)-1-fluoro-12-(((6S,8aS)-hexahydro-1H-pyrrolo[2,1-c][1,4]oxazin-6-yl)methoxy)-5-methyl-5a,6,7,8,9,10-hexahydro-5H-4-oxa-3,10a,11,13,14-pentaaza-6,9-methanonaphtho[1,8-ab]heptalen-2-yl)-5-methyl-4-(trifluoromethyl)aniline]	0.86 nM	224 nM
C[C@@H]1Oc2nc(-c3cc(N)c(F)c(Cl)c3C(F)(F)F)c(F)c3nc(OC[C@@]45CCCN4C[C@H](F)C5)nc(c23)N2C[C@H]3CC[C@H](N3)[C@@H]12 [Compound 104, 3-Chloro-2-fluoro-5-((5S,5aS,6S,9R)-1-fluoro-12-(((2R,7aS)-2-fluorotetrahydro-1H-pyrrolizin-7a(5H)-yl)methoxy)-5-methyl-5a,6,7,8,9,10-hexahydro-5H-4-oxa-3,10a,11,13,14-pentaaza-6,9-methanonaphtho[1,8-ab]heptalen-2-yl)-4-(trifluoromethyl)aniline]	0.05 nM	0.71 nM
